In article PMC9575645 (Signal Transduction and Targeted Therapy, 2022):

Legend:
HSL phosphorylation [1] = test: HSL phosphorylation by western blot in SARS-CoV-2-infected Vero E6 cells; format: cell-based, African green monkey; settings: 5 μM or 50 μM
HSL phosphorylation [2] = test: HSL phosphorylation by western blot in IAV-infected A549 cells; format: cell-based, human; settings: 5 μM or 50 μM
[3] = system: Influenza A virus (H1N1) (PR8); settings: IAV; FFA-deprived condition in lipase inhibitor-treated cells; 100 µM
SARS-CoV-2 (KCDC03) = test: In vitro antiviral activity against SARS-CoV-2 in Vero E6 cells (CCIF viral yield, RT-qPCR); format: cell-based; settings: SARS-CoV-2; FFA-deprived condition in lipase inhibitor-treated cells; 100 µM
[4] = In vivo toxicity in hamsters (body weight, gross and histopathological organ changes); settings: 80 mg kg^-1 d^-1 atglistatin and 2.5 mg kg^-1 d^-1 remdesivir, singly or in combination
Experimental: Three groups of 3 hamsters were treated intraperitoneally with 20, 40, and 80 mg kg^-1 d^-1 of atglistatin prepared in a 100 μL vehicle [50% PEG400 in water (vol/vol)] Bid with a 12 h interval for four and a half consecutive days, respectively (Table S10). One group of 3 control anesthetized hamsters was administered intraperitoneally with 100 μL vehicle Bid with a 12 h interval for four and a half consecutive days (Table S10).
Histopathological changes in lungs, liver, kidney, heart, and spleen from the experimental mice or hamsters in each experimental group were determined as described elsewhere.^35 Briefly, each sample from the mice or hamsters in each experimental group was fixed in sufficient 10% neutral formalin at 20°C for 3-4 days, washed in tap water, then trimmed, and thereafter processed in the automatic embedding machine for the dehydration and paraffin embedment. Tissue sections, prepared on slides at a thickness of 3 μm by a microtome, were used for hematoxylin and eosin (H&E) staining or IHC as described below. H&E stained sections were observed under light microscopy. The morphological changes to lung, liver, kidney, heart, and spleen tissues were reviewed in a blinded manner as previous described.^35

| Compound | viral-mediated HSL phosphorylation (HSL phosphorylation [1]) | viral-mediated HSL phosphorylation (HSL phosphorylation [2]) | virus replication on FFA supplementation [3] | virus replication on FFA supplementation (SARS-CoV-2 (KCDC03)) | toxicity, including body weight loss [4] |
| --- | --- | --- | --- | --- | --- |
| O=S(=O)(NCCNC/C=C/c1ccc(Br)cc1)c1cccc2cnccc12 [H89] | prevented viral-mediated HSL phosphorylation | prevented viral-mediated HSL phosphorylation | – | – | – |
| CCCCC/C=C\C/C=C\CCCCCCCC(=O)O [LA, linoleic acid] | – | – | rescue of replication | rescue of replication | – |
| CCCCCCCC/C=C\CCCCCCCC(=O)O [OA, oleic acid] | – | – | rescue of replication | rescue of replication | – |
| CCCCCCCCCCCCCCCC(=O)O [PA, palmitic acid] | – | – | rescue of replication | rescue of replication | – |
| CCC(CC)COC(=O)[C@H](C)N[P@](=O)(OC[C@H]1O[C@@](C#N)(c2ccc3c(N)ncnn23)[C@H](O)[C@@H]1O)Oc1ccccc1 [remdesivir] | – | – | – | – | no toxicity |
